Assay results published in patent publication US20230190760A1, “ADVANTAGEOUS THERAPIES FOR DISORDERS MEDIATED BY IKAROS OR AIOLOS” (C4 Therapeutics, Inc., priority 2020, published 2023).

Columns and labels:
tumor xenografts = assay: Mouse xenograft tumor models (summary); assay type: in vivo
Description: Compound 1 efficacy in two multiple myeloma cell lines (NC-H929) and (RPMI-8226) was evaluated at four different doses: 3 μg/kg, 10 μg/kg, 30 μg/kg, and 100 μg/kg. Compound 1 was administered QD (every day) orally (PO). […]

[1] = system: proteins in DL40 tumor lysates; assay: Global proteomics of ALCL ALK+ DL40 xenograft tumors, mice treated orally with 100 μg/kg; assay type: in vivo, mouse
Description: NOD SCI mouse bearing ALCL ALK+DL40 xenografts were treated orally with 100 μg/kg of Compound 1. After 1, 4, 24 and 48 hour treatment, biological duplicates of tumoral cells were harvested, washed twice with PBS, and snap frozen in liquid nitrogen. Samples were resuspended in lysis buffer [8 M urea, 50 mM EPPS (pH 8.5), 50 mM NaCl, lx protease inhibitor cocktail] and lysed by sonication. Lysates were centrifuged at maximum speed, reduced for 1 hour at room temperature with 5 mM TCEP, and the cysteine residues were then alkylated with 15 mM iodoacetamide (room temperature, in dark, 30 minutes). Protein content was extracted twice by methanol-chloroform precipitation and subsequent ice-cold acetone washes. Protein pellets were resuspended in 8 M urea, 50 mM EPPS (pH 8.5) buffer and protein concentrations were measured by BCA assay. Samples were then diluted to 4 M urea with 50 mM EPPS (pH 8.5) and digested at 37° C. for 1 hour with endoproteinase Lys-C, at a 1/100 enzyme/protein ratio. The mixtures were then diluted to 1 M urea with 50 mM EPPS (pH 8.5) and trypsin was added at a 1/50 enzyme/protein ratio. The reaction was incubated overnight at 37° C. and stopped by acidification with formic acid 0.5% (v/v). Peptides were loaded on tC18 SepPak solid-phase extraction cartridges and lyophilized.
For peptide labeling, 100 μg of peptides per sample was prepared at […] concentration in 200 mM EPPS (pH 8.5), ACN was added to a final concentration of 30% and then 50 μg of each TMT 10 reagent. After 1 hour incubation at room temperature, reactions were quenched with 0.3% hydroxylamine for 15 minutes and mixed equally. The mixed sample was desalted using the tC18 SepPak solid-phase extraction cartridges, and lyophilized. Dried peptides were resuspended in 5% ACN, 10 mM NH4HCO3 pH 8 and fractionated in a basic pH reversed phase chromatography using a HPLC equipped with a 3.5 μm XBridge Peptide BEH C18 column. 96 fractions were collected, which were consolidated into 24, of which only 12 nonadjacent samples were analyzed. Samples were desalted, dried via vacuum centrifugation and reconstituted in 12 μL of 5% formic for LC-MS/MS analysis.
A third of each sample (4 μL) was separated by reversed phase chromatography using an EASY-Spray C18 column (2 μm particle size, 250 mm length×75 μm ID) mounted in an EASY-nLC 1200 LC pump coupled to an Orbitrap Fusion Lumos Tribid mass spectrometer. Peptides were separated using a 420 min gradient of 2 to 30% acetonitrile at a flow rate of ˜300 nL/min. Each analysis was performed using the multi-notch MS3 (SPS-MS3) scan. For the identification and relative quantification, all RAW files obtained from the mass spectrometer were transformed using SEQUEST-based software. Briefly, mass spectra were searched against the human Uniprot database (February 2016) concatenated with a database composed of all protein sequences in the reversed order as well as known contaminants. In all SEQUEST searches, precursor ion tolerance was set at 25 ppm and product ion tolerance at 0.9 Da, including methionine oxidation (+15.9949 Da) and cysteine carbamidomethylation (+57.0215 Da) as variable modifications. TMT tag (+229.1629 Da) on lysine residues and peptide N-termini were set as static modifications. Peptide-spectrum matches (PSMs) were performed using a linear discriminant analysis and adjusted to a […]. Peptide intensities were quantified by extracting the signal-to-noise ratio and proteins were further collapsed to a final protein-level FDR of 2%. Protein quantification values were exported to Excel, GraphPad Prism 7 or Perseus14 for further analysis.

RL = assay: Anti-proliferative activity, 96 hours; settings: Homo sapiens

For `O=C1CC[C@H](N2C(=O)c3cccc4c(Cc5ccc(CN6CCOCC6)cc5)ccc2c34)C(=O)N1` (single isomer, unassigned) [Compound 1], the tumor response (tumor xenografts; daily dosing at 30 μg/kg/day to 100 μg/kg/day, several tumor xenografts) was “durable tumor regression”, the efficacy (tumor xenografts; from 3 μg/kg/day to 100 μg/kg/day) was “dose dependent efficacy” and the “Log2 FC vs Vehicle, IKZF1” value ([1]; 4 Hour) was −2.466. For the same molecule, the “Log2 FC vs Vehicle, IKZF3” value ([1]; 4 Hour) was −2.006, the “Log2 FC vs Vehicle, ACTA1” value ([1]; 24 Hour) was −1.089 and the “Log2 FC vs Vehicle, ACTN2” value ([1]; 24 Hour) was −1.304. For the same molecule, the “Log2 FC vs Vehicle, AK1” value ([1]; 24 Hour) was −1.041, the “Log2 FC vs Vehicle, APOBEC2” value ([1]; 24 Hour) was −1.355 and the “Log2 FC vs Vehicle, ATP2A1” value ([1]; 24 Hour) was −1.427. For the same molecule, the “Log2 FC vs Vehicle, CASQ1” value ([1]; 24 Hour) was −1.333, the “Log2 FC vs Vehicle, CKM” value ([1]; 24 Hour) was −1.248 and the “Log2 FC vs Vehicle, CKMT2” value ([1]; 24 Hour) was −1.544. The “Log2 FC vs Vehicle, FHL1” value ([1]; 24 Hour) was −1.311, the “Log2 FC vs Vehicle, IKZF1” value ([1]; 24 Hour) was −2.515 and the “Log2 FC vs Vehicle, IKZF3” value ([1]; 24 Hour) was −1.761. For the same molecule, the “Log2 FC vs Vehicle, JPH2” value ([1]; 24 Hour) was −1.117, the “Log2 FC vs Vehicle, KLHL41” value ([1]; 24 Hour) was −1.142 and the “Log2 FC vs Vehicle, LDB3” value ([1]; 24 Hour) was −1.136. For the same molecule, the “Log2 FC vs Vehicle, MYBPC1” value ([1]; 24 Hour) was −1.366, the “Log2 FC vs Vehicle, MYBPC2” value ([1]; 24 Hour) was −1.146 and the “Log2 FC vs Vehicle, MYH1” value ([1]; 24 Hour) was −1.258. For the same molecule, the “Log2 FC vs Vehicle, MYH2” value ([1]; 24 Hour) was −1.188, the “Log2 FC vs Vehicle, MYH3” value ([1]; 24 Hour) was −1.165 and the “Log2 FC vs Vehicle, MYH4” value ([1]; 24 Hour) was −1.05. For the same molecule, the “Log2 FC vs Vehicle, MYH7” value ([1]; 24 Hour) was −2.977, the “Log2 FC vs Vehicle, MYH7B” value ([1]; 24 Hour) was −1.231 and the “Log2 FC vs Vehicle, MYH13” value ([1]; 24 Hour) was −1.102. The “Log2 FC vs Vehicle, MYL1” value ([1]; 24 Hour) was −1.3, the “Log2 FC vs Vehicle, MYL4” value ([1]; 24 Hour) was −1.344 and the “Log2 FC vs Vehicle, MYLPF” value ([1]; 24 Hour) was −1.434. For the same molecule, the “Log2 FC vs Vehicle, MYOM1” value ([1]; 24 Hour) was −1.201, the “Log2 FC vs Vehicle, NEB” value ([1]; 24 Hour) was −1.184 and the “Log2 FC vs Vehicle, OAS1” value ([1]; 24 Hour) was 1.172. For the same molecule, the “Log2 FC vs Vehicle, PVALB” value ([1]; 24 Hour) was −1.105, the “Log2 FC vs Vehicle, PYGM” value ([1]; 24 Hour) was −1.139 and the “Log2 FC vs Vehicle, SPR” value ([1]; 24 Hour) was 1.088. For the same molecule, the “Log2 FC vs Vehicle, SRL” value ([1]; 24 Hour) was −1.252, the “Log2 FC vs Vehicle, TNNC2” value ([1]; 24 Hour) was −1.035 and the “Log2 FC vs Vehicle, TNNI2” value ([1]; 24 Hour) was −1.377. For the same molecule, the “Log2 FC vs Vehicle, TPM1” value ([1]; 24 Hour) was −1.146, the “Log2 FC vs Vehicle, TRIM72” value ([1]; 24 Hour) was −1.083 and the “Log2 FC vs Vehicle, TTN” value ([1]; 24 Hour) was −1.117. For the same molecule, the “Log2 FC vs Vehicle, ZFP91” value ([1]; 24 Hour) was −1.279, the “fold change, IKZF1 downregulated” value ([1]; 4 hours) was 5.5 and the “fold change, IKZF3 downregulated” value ([1]; 4 hours) was 4.1. The “selectivity, proteins degraded” value ([1]; 4 hours post a single dose of 100 μg/kg, >7900 proteins detected) was “degrading only IKZF1/3” and the IC50 (RL) was 2.32 nM.
